In US20150359913A1, “TETRAZINES/TRANS-CYCLOOCTENES IN SOLID PHASE SYNTHESIS OF LABELED PEPTIDES” (MEMORIAL SLOAN-KETTERING CANCER CENTER, priority 2013, published 2015):
Blank lines part the entries; values can stand above or below the molecule they belong to.

Key:
A33 antigen (human) [1] = target: A33 antigen (human) (UniProt Q99795); experiment: immunoreactivity assay of the radiolabelled antibody (cells not given)
A33 antigen (human) [2] = target: A33 antigen (human) (UniProt Q99795); experiment: immunoreactivity assay with A33 antigen-expressing SW1222 human colorectal cancer cells, radiolabelled antibody
A33 antigen (human) [3] = target: A33 antigen (human) (UniProt Q99795); experiment: immunoreactivity of the TCO-modified antibody (assay not described in this sentence)
[4] = test system: subcutaneous SW1222 xenografts; experiment: pre-targeted biodistribution: A33-TCO, 24 h later ^64Cu-Tz-Bn-NOTA; type: in vivo, mice; conditions: for Biodistribution: Blood / Biodistribution: Bone / Biodistribution: Feces / Biodistribution: Heart / Biodistribution: Kidney / Biodistribution: Large intestine / Biodistribution: Liver / Biodistribution: Lung / Biodistribution: Muscle / Biodistribution: Skin / Biodistribution: Small intestine / Biodistribution: Spleen / Biodistribution: Stomach / Biodistribution: Tumor: A33-TCO (100 μg) 24 h before ^64Cu-Tz-Bn-NOTA; for uptake in all other tissues (not tumor, feces): generally
Procedure: Values are represented as % ID/g±SD. Mice (n=4) bearing subcutaneous SW1222 xenografts were administered huA33-TCO (100 μg) via tail vein injection. After 24 hours the same mice were administered ^64Cu-Tz-Bn-NOTA (0.55-0.75 MBq [15-20 μCi] via tail vein injection (t=0).
Following the synthesis and characterization of the components of the system, in vivo pre-targeted biodistribution and PET imaging experiments were performed. For the pre-targeted biodistribution experiments, mice bearing SW1222 xenografts were administered huA33-TCO (100 μg) via tail vein injection. After a 24 h interval, the mice were administered ^64Cu-Tz-NOTA via tail vein injection. The data reveal rapid accumulation and retention of activity in the tumor, with 4.1±0.3% ID/g at 1 h p.i and 4.2±0.3% ID/g at 12 h p.i. (Table 1). The compound is excreted through the feces, with high levels of activity at 1 h p.i. dropping to 0.9±0.1% ID/g at 12 h, and the amount of uptake in other tissues remains very low, generally less than 0.3% ID/g.
For the pre-targeted biodistribution experiments, mice bearing subcutaneous SW1222 xenografts were administered A33-TCO ([…]) via tail vein injection. […] The data reveal rapid accumulation and retention of radioactivity in the tumor, with 4.1±0.3 percent injected dose per gram (% ID/g) at 1 h after injection, 4.2±0.8% ID/g at 12 h, and 4.0±0.9% ID/g at 24 h (Table 1). The compound is excreted through the feces, with high levels of activity at 1 h after injection dropping to 2.5±0.1% ID/g at 12 h. The amount of uptake in all other tissues remains low, generally less than 1% ID/g.
The specificity of antibodies have made immunoconjugates promising vectors for the delivery of radioisotopes to cancer cells; however, their long pharmacologic half-lives necessitate the use of radioisotopes with long physical half-lives, a combination that leads to high radiation doses to patients. Therefore, the development of targeting modalities that harness the advantages of antibodies without their pharmacokinetic limitations is desirable. To this end, we report the development of a methodology for pre-targeted PET imaging based on the bioorthogonal Diels-Alder click reaction between tetrazine and transcyclooctene. A proof-of-concept system based on the A33 antibody, SW1222 colorectal cancer cells, and ^64Cu was used. The huA33 antibody was covalently modified with transcyclooctene, and a NOTA-modified tetrazine was synthesized and radiolabeled with ^64Cu. Pre-targeted in vivo biodistribution and PET imaging experiments were performed with athymic nude mice bearing A33 antigen-expressing, SW1222 colorectal cancer xenografts. The huA33 antibody was modified with transcyclooctene to produce a conjugate with high immunoreactivity, and the ^64Cu-NOTA-labeled tetrazine ligand was synthesized with greater than 99% purity and a specific activity of 9-10 MBq/mg. For in vivo experiments, mice bearing SW1222 xenografts were injected with transcyclooctene-modified A33; after allowing 24 h for accumulation of the antibody in the tumor, the mice were injected with 64Cu-NOTA-labeled tetrazine for PET imaging and biodistribution experiments. At 12 h after injection, the retention of uptake in the tumor ([…] percent injected dose per gram), coupled with the fecal excretion of excess radioligand, produced images with high tumor-to-background ratios. […] Conclusion: The high quality of the images produced by this pretargeting approach, combined with the ability of the methodology to dramatically reduce non-target radiation doses to patients, marks this system as a strong candidate for clinical translation.

[5] = in vitro stability of the radioligand in human serum at 37° C., HPLC; type: in vitro ADME
Procedure: (§1) The stability of the radioligand was assayed in vitro by incubation in human serum at 37° C. and subsequent HPLC analysis. The ^64Cu-Tz-Bn-NOTA remained relatively stable after 1 h, with 93.0%±2.5% intact. […] In addition, in vivo stability experiments were performed, and these produced similar results, although some acceleration in decomposition can be noted: 77%±3% of the ^64Cu-Tz-Bn-NOTA is intact in the blood after 60 min, followed by 47%±2% after 2 h and 22%±3% after 6 h. Although greater stability may be preferable, the speed of the cycloaddition reaction and the rapid pharmacokinetics of the radioligand led us to believe it unlikely that poor serum stability at later time points would limit the system.

[6] = in vivo stability of the radioligand in the blood
Procedure: as §1

UniProt Q99795, sequence (Q99795 22-319): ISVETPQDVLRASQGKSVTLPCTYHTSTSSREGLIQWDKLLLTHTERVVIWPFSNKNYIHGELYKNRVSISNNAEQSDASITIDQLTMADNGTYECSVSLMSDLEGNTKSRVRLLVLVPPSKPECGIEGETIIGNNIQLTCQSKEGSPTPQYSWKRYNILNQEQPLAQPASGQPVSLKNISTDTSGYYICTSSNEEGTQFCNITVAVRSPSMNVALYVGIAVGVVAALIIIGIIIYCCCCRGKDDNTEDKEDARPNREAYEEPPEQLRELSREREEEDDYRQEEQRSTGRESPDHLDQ

immunoreactivity (A33 antigen (human) [1]): > 95%
immunoreactivity (A33 antigen (human) [2]): 95.6%
Molecule: ^64Cu-NOTA-A33 (A33-TCO reacted with ^64Cu-Tz-Bn-NOTA) (antibody)

immunoreactivity (A33 antigen (human) [3]): > 95%
Molecule: TCO-modified huA33 (huA33-TCO) (antibody)

immunoreactivity (A33 antigen (human) [1]): 92%
Molecule: ^89Zr-DFO-A33 (antibody)

Biodistribution: Blood ([4]; 1 h): 3.5 ± 0.6 % ID/g
Biodistribution: Bone ([4]; 1 h): 0.3 ± 0.2 % ID/g
Biodistribution: Feces ([4]; 1 h): 11.9 ± 4.4 % ID/g
Biodistribution: Heart ([4]; 1 h): 1.1 ± 0.2 % ID/g
Biodistribution: Kidney ([4]; 1 h): 1.3 ± 0.1 % ID/g
Biodistribution: Large intestine ([4]; 1 h): 0.5 ± 0.0 % ID/g
Biodistribution: Liver ([4]; 1 h): 2.2 ± 0.3 % ID/g
Biodistribution: Lung ([4]; 1 h): 1.6 ± 0.5 % ID/g
Biodistribution: Muscle ([4]; 1 h): 0.2 ± 0.0 % ID/g
Biodistribution: Skin ([4]; 1 h): 0.3 ± 0.1 % ID/g
Biodistribution: Small intestine ([4]; 1 h): 0.0 ± 0.0 % ID/g
Biodistribution: Spleen ([4]; 1 h): 0.6 ± 0.1 % ID/g
Biodistribution: Stomach ([4]; 1 h): 0.5 ± 0.1 % ID/g
Biodistribution: Tumor ([4]; 1 h): 4.1±0.3 % ID/g
Biodistribution: Tumor ([4]; 1 h, listed as 64Cu-Tz-NOTA): 4.1±0.3 % ID/g
Biodistribution: Blood ([4]; 4 h): 2.6 ± 0.8 % ID/g
Biodistribution: Bone ([4]; 4 h): 0.3 ± 0.2 % ID/g
Biodistribution: Feces ([4]; 4 h): 8.8 ± 3.4 % ID/g
Biodistribution: Heart ([4]; 4 h): 0.9 ± 0.3 % ID/g
Biodistribution: Kidney ([4]; 4 h): 0.9 ± 0.3 % ID/g
Biodistribution: Large intestine ([4]; 4 h): 3.1 ± 1.1 % ID/g
Biodistribution: Liver ([4]; 4 h): 1.3 ± 0.3 % ID/g
Biodistribution: Lung ([4]; 4 h): 1.6 ± 0.4 % ID/g
Biodistribution: Muscle ([4]; 4 h): 0.1 ± 0.0 % ID/g
Biodistribution: Skin ([4]; 4 h): 0.3 ± 0.1 % ID/g
Biodistribution: Small intestine ([4]; 4 h): 0.4 ± 0.1 % ID/g
Biodistribution: Spleen ([4]; 4 h): 0.5 ± 0.2 % ID/g
Biodistribution: Stomach ([4]; 4 h): 0.3 ± 0.1 % ID/g
Biodistribution: Tumor ([4]; 4 h): 4.1 ± 0.6 % ID/g
Biodistribution: Blood ([4]; 12 h): 2.3 ± 0.4 % ID/g
Biodistribution: Bone ([4]; 12 h): 0.4 ± 0.1 % ID/g
Biodistribution: Feces ([4]; 12 h): 2.5±0.1 % ID/g
Biodistribution: Heart ([4]; 12 h): 0.9 ± 0.1 % ID/g
Biodistribution: Kidney ([4]; 12 h): 0.9 ± 0.3 % ID/g
Biodistribution: Large intestine ([4]; 12 h): 2.3 ± 1.0 % ID/g
Biodistribution: Liver ([4]; 12 h): 0.9 ± 0.2 % ID/g
Biodistribution: Lung ([4]; 12 h): 1.1 ± 0.4 % ID/g
Biodistribution: Muscle ([4]; 12 h): 0.2 ± 0.0 % ID/g
Biodistribution: Skin ([4]; 12 h): 0.4 ± 0.1 % ID/g
Biodistribution: Small intestine ([4]; 12 h): 0.8 ± 0.5 % ID/g
Biodistribution: Spleen ([4]; 12 h): 0.6 ± 0.3 % ID/g
Biodistribution: Stomach ([4]; 12 h): 0.5 ± 0.6 % ID/g
Biodistribution: Tumor ([4]; 12 h): 4.2±0.8 % ID/g
Biodistribution: Tumor ([4]; 12 h, listed as 64Cu-NOTA-labeled tetrazine): 4.1±0.3 % ID/g
Biodistribution: Feces ([4]; 12 h, listed as 64Cu-Tz-NOTA): 0.9±0.1 % ID/g
Biodistribution: Tumor ([4]; 12 h, listed as 64Cu-Tz-NOTA): 4.2±0.3 % ID/g
tumor-to-muscle activity concentration ratio ([4]; 12 h, pre-targeting, A33-TCO 24 h before radioligand): 26.6±6.6
Biodistribution: Blood ([4]; 24 h): 2.1 ± 0.5 % ID/g
Biodistribution: Bone ([4]; 24 h): 0.3 ± 0.1 % ID/g
Biodistribution: Feces ([4]; 24 h): 1.4 ± 0.5 % ID/g
Biodistribution: Heart ([4]; 24 h): 0.8 ± 0.2 % ID/g
Biodistribution: Kidney ([4]; 24 h): 0.7 ± 0.2 % ID/g
Biodistribution: Large intestine ([4]; 24 h): 1.1 ± 0.4 % ID/g
Biodistribution: Liver ([4]; 24 h): 1.1 ± 0.2 % ID/g
Biodistribution: Lung ([4]; 24 h): 1.0 ± 0.3 % ID/g
Biodistribution: Muscle ([4]; 24 h): 0.1 ± 0.0 % ID/g
Biodistribution: Skin ([4]; 24 h): 0.5 ± 0.2 % ID/g
Biodistribution: Small intestine ([4]; 24 h): 0.3 ± 0.0 % ID/g
Biodistribution: Spleen ([4]; 24 h): 0.4 ± 0.1 % ID/g
Biodistribution: Stomach ([4]; 24 h): 0.2 ± 0.0 % ID/g
Biodistribution: Tumor ([4]; 24 h): 4.0±0.9 % ID/g
uptake in all other tissues (not tumor, feces) ([4]; pre-targeting): less than 1 % ID/g
uptake in all other tissues (not tumor, feces) ([4]; pre-targeting, listed as 64Cu-Tz-NOTA): less than 0.3 % ID/g
radioligand intact ([5]; 1 h): 93.0%±2.5%
radioligand intact ([5]; 12 h): 31.6%±6.1%
radioligand intact in the blood ([6]; 60 min): 77%±3%
radioligand intact in the blood ([6]; 2 h): 47%±2%
radioligand intact in the blood ([6]; 6 h): 22%±3%
Molecule: O=C([O-])CN1CCN(CC(=O)[O-])CC(Cc2ccc(NC(=O)CCCC(=O)NCc3ccc(-c4nncnn4)cc3)cc2)N(CC(=O)[O-])CC1.[64Cu+2] (stereo not drawn) [^64Cu-Tz-Bn-NOTA]
